In patent US20130281313A1, “PROGNOSTIC AND/OR PREDICTIVE BIOMARKERS AND BIOLOGICAL APPLICATIONS THEREOF” (INSTITUT GUSTAVE ROUSSY, priority 2010, published 2013):

What was measured:
[1] = tested on: A549 cells; experiment: Genome-wide siRNA screen: residual proliferation (WST-1) of siRNA-transfected cells upon CDDP; assay type: cell-based, human; conditions: 50 μM CDDP for 24 hours
Procedure: High-throughput operations were carried out by means of a Microlab STAR automated workstation (Hamilton, Reno, USA) placed under a class II safety cabinet. In all screening rounds, each siRNA was tested in triplicates that were distributed to three different plates. Prior to cell seeding, transfection complexes were individually prepared in a V-bottomed 96-well deep well plate. In brief, each siRNA (as retrieved from the Human Whole Genome siRNA Set Version 1.0) was dissolved in a total volume of 122.5 μL serum-free phenol-red free DMEM/F12 medium (final concentration=10 nM, conditions for 7 wells). Similarly, an appropriate amount of HiPerFect® transfection reagent (Qiagen) was diluted in serum-free phenol-red free DMEM/F12 medium (0.25 μL per well). […] After additional 24 h, the 3 plates that were not subjected to cell death induction were assessed for both plasma membrane breakdown and residual cell proliferation, while the 3 plates that were treated with cell death-inducing stimuli were monitored for residual proliferation only (see next section). […]
In the second round of screen (4 siRNAs×1,000 transcripts=4,000 siRNAs), the effects of individual siRNAs were analyzed and scored as described above. […]

[2] = tested on: TP53 (phospho-Ser15, phospho-Ser46), caspase-3, caspase-9; experiment: Immunoblotting of the intrinsic apoptosis pathway; assay type: cell-based, human; conditions: A549 cells, sub-apoptotic (25 μM) CDDP in the presence of PN
Procedure: For the preparation of total protein extracts A549 cells were washed with cold PBS and lysed in a buffer containing 1% NP40, 20 mM HEPES (pH 7.9), 10 mM KCl, 1 mM EDTA, 10% glycerol, 1 mM orthovanadate, 1 mM PMSF, 1 mM dithiothreitol, 10 μg/mL aprotinin, 10 μg/mL leupeptin, and 10 μg/mL pepstatin, according to established protocols {Zermati, 2007}. […]

SMILES	cells killed [1]	activating phosphorylation of TP53 on serines 15 and 46 [2]	activation of caspases-3 and -9 [2]
N.N.[Cl][Pt][Cl] [CDDP, cis-diammineplatinum(II) dichloride]	~45%		
Cc1ncc(CO)c(CO)c1O [PN, pyridoxine]		an increased activating phosphorylation of TP53 on serines 15 and 46	an increased activation of caspases-3 and -9
